Assay results published in patent US20240122878A1 (priority 2021, published 2024).
Several values for one entry are separate records, joined by “and”; a condition that tells them apart may be missing. Equal values may be shown once. Read-outs that look alike come from different tables or passages of the source.

Legend:
[1] = Phase 2a study plasma pharmacokinetics; format: in vivo, human; conditions: for Cmax: human, in vivo, C-QTc population
Protocol: (§1) Timed PK assessments were performed on Day 1 and after approximately 23 hours post Day 1 dosing, and thus for the exposure-response analysis only the Day 1 ECG data is utilized.
PK sampling was done on Day 1 at 1 hour pre-dose and 0.5, 1, 2, 4, 6, 8, and 12 hours post-dose. On Day 2 through Day 7, sampling was done 1 hour pre-dose. On Day 8, sampling was done approximately 24 hours after the last dose of study drug (on Day 7). On Day 9, sampling was done approximately 48 hours after the last dose (on Day 7).
(§2) The geometric mean of the individual Cmax values for patients in each of the active dose groups was determined.

[2] = system: patients with major depressive disorder; test: Phase 2a cardiodynamic ECG evaluation (concentration-QTc and by-time point analysis); format: in vivo, human
Protocol: as §1
The 12-lead digital ECG equipment was supplied and supported by the central ECG core lab vendor, eResearch Technology, Inc., ERT (Philadelphia, PA). After a supine rest period, ECGs were collected in triplicate at the pre-specific time points indicated within the study protocol and described below.
Twelve-lead ECGs were to be performed in triplicate approximately 1 minute apart after lying quietly for at least 3 min at: • Screening • Check-in (Day—1) • Day 1: 1 hour pre-dose and 2 hours, 4 hours, 6 hours, and 8 hours post-dose on Day 1 • Day 2: 1 hour pre-dose (corresponding to 23 hours post-dose on Day 1) and 2 hours, 4 hours, 6 hours, and 8 hours post-dose • Days 3-7: 2 hours post-dose • Day 8 • Prior to discharge on Day 9 • End of the observation period (Day 14)
The QT and RR value for each measured beat were used for HR correction. Three beats were measured on each of the triplicate ECGs at each time point. The mean value from each triplicate tracing was calculated, and then the mean of all available measurements from a nominal time point were used as the patient's reportable value at that time point. • 5. ECG Methodology: Central Laboratory
[published correction appears in J Pharmacokinet Pharmacodyn. […] J Pharmacokinet Pharmacodyn. […] In all calculations, concentrations in patients who received placebo were set to zero.
as §2
An unstructured covariance matrix was specified for the repeated measures at post-dose time points within patient.

[3] = cited from earlier work
[4] = target: hERG (Homo sapiens, UniProt Q12809); test: GLP hERG channel current study of esmethadone; conditions: human
[5] = target: hERG (human ether-à-go-go-related gene) channel current (Homo sapiens, UniProt Q12809); test: GLP hERG channel current study of esmethadone
[6] = Phase 1 pharmacokinetics of immediate release esmethadone (Bernstein 2019); format: in vivo; conditions: human, plasma; 25 mg oral daily dosing ×10 days; read-out: Steady state Cmax
Protocol: […]. […] Therefore, dose proportionality and linearity after oral administration of each of the three molecules, based on the data from Bernstein 2019 and Foster 2004 are expected. […].
Steady state Curough concentrations (measured at Day 10) were 142.7, 326.2 and 338.8 ng/ml respectively.

[7] = system: healthy volunteers; test: Phase 1 study esmethadone-112 concentration-QTc sub-analysis; format: in vivo, human
[8] = linear mixed-effects model, C-QTc population

Chain of hERG (Q12809 whole entry): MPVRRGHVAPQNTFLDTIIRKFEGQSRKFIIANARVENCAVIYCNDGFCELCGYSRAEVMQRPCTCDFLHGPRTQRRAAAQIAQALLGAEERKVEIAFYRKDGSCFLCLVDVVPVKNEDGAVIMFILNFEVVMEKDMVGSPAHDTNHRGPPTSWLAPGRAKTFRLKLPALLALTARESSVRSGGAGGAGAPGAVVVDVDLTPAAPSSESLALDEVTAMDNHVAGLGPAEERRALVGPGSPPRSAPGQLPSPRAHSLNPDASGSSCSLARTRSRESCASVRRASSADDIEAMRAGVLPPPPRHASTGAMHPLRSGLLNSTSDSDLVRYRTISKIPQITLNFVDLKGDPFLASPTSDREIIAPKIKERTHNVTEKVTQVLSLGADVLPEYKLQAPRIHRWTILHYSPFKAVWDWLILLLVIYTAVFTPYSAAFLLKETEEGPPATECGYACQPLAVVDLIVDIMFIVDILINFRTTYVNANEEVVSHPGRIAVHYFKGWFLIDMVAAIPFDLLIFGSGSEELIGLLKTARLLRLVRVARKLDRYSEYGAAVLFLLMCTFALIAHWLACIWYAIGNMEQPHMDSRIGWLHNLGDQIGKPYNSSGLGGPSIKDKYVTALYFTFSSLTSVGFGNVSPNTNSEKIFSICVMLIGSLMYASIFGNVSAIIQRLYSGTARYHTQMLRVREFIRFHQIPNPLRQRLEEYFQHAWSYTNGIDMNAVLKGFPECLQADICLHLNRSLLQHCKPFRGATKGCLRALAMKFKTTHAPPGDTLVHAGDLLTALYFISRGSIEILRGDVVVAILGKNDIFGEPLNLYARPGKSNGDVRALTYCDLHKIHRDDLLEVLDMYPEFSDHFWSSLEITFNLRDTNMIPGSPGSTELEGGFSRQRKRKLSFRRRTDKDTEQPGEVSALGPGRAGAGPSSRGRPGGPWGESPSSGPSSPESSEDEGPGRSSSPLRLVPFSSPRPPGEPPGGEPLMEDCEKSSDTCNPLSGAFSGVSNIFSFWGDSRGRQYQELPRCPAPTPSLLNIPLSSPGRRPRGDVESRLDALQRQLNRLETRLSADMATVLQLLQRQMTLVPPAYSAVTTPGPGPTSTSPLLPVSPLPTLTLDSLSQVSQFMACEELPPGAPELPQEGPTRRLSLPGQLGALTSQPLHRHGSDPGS
Chain of hERG (human ether-à-go-go-related gene) channel current (Q12809 whole entry): as above

For `CCC(=O)C(C[C@H](C)N(C)C)(c1ccccc1)c1ccccc1` [esmethadone], the “Highest PK values on Day 1” value ([1]; 25 mg (75 mg Day 1)) was 254.5 ng/mL, the “Highest PK values on Day 1” value ([1]; 50 mg (100 mg Day 1)) was 343.9 ng/mL and the Cmax ([1]; 25 mg QD group, Day 1 after 75 mg loading dose) was 265 ng/mL. For the same compound, the Cmax ([1]; 50 mg QD group, Day 1 after 100 mg loading dose) was 338 ng/mL, the “Model-predicted ΔΔQTcF at 10 ms Threshold concentration” value ([2]; 300 ng/ml, linear model, (90% CI)) was 7.18 (4.36, 10.00) ms and the “Model-predicted ΔΔQTcF at geometric mean Cmax” value ([2]; 25 mg QD group after 75 mg loading dose, 265.2 ng/mL, linear model, (90% CI)) was 6.7 ms and 6.71 ms and 6.71 (3.94, 9.48) ms. The “Maximum LS mean ΔΔQTcF, by-time point analysis” value ([2]; 25 mg dose group (75 mg loading), Day 2 pre-dose time point) was 7.7 ms, the “Model-predicted ΔΔQTcF at geometric mean Cmax” value ([2]; 50 mg QD group after 100 mg loading dose, 337.8 ng/mL, linear model, (90% CI)) was 7.7 ms and 7.69 ms and 7.69 (4.80, 10.58) ms and the “Maximum LS mean ΔΔQTcF, by-time point analysis” value ([2]; 50 mg dose group (100 mg loading), Day 1, 8 hour time point) was 10.9 ms. For the same compound, the “Slope of the concentration-QTc relationship (esmethadone Slope)” value [2, 8] was 0.014 ms per ng/mL, the “Treatment effect-specific intercept (Treatment Effect)” value [2, 8] was 3.11 ms and the ECG morphology changes ([2]; studied doses) was “no clinically significant ECG morphology changes”. For the same compound, the “Effect on QTc” value ([2]; studied doses) was “modest, dose-dependent increase in QTc”, the “Effect on heart rate, PR, or QRS” value ([2]; studied doses) was “no clinically significant effect” and the “Steady state Ctrough concentration (Day 10)” value ([3]; 25 mg) was 142.7 ng/mL. For the same compound, the “Steady state Ctrough concentration (Day 10)” value ([3]; 50 mg) was 326.2 ng/mL, the “Steady state Ctrough concentration (Day 10)” value ([3]; 75 mg) was 338.8 ng/mL and the inhibition at 0.3 µM [4] was 27.3 ± 1.6%. The inhibition at 1 µM [4] was 48.8 ± 3.4%, the inhibition at 3 μM [4] was 68.6 ± 0.3% and the inhibition at 10 µM [4] was 88.6 ± 0.7%. For the same compound, the IC50 [5] was 1000 nM, the Hill coefficient ([5]; GLP study) was 0.8 and the Cmax [6] was 273 ng/mL. For the same compound, the “Effect on HR” value ([7]; Day 10) was “mild HR slowing”, the “Peak ΔΔQTcF, time-based central tendency analysis” value (“Peak ΔΔQTcF” below) ([7]; Day 10, 25 mg cohort) was 11.5 ms and the “Peak ΔΔQTcF” value ([7]; Day 10, 50 mg QD cohort) was 26.8 ms. The “Peak ΔΔQTcF” value ([7]; Day 10, 75 mg QD cohort) was 28.8 ms, the “Subjects with pronounced QTcF prolongation (QTcF>60 ms or absolute QTcF>480 ms)” value ([7]; categorical analysis, any treatment group) was “no subjects” and the “Effects on the PR or QRS intervals” value ([7]; in vivo) was “no clinically meaningful effects”.
